Measurements reported in patent US5334582A, “Pharmaceutical bacteriocin compositions and methods for using the same” (Applied Microbiology, Inc., priority 1993, dated 1994).
Where two headings read alike, the source gives them in different places.

Key:
Escherichia coli = conditions: for % survival at 1 min: nisin 100 μg/ml and/or EDTA 1.0 mM
Protocol: The rapid activities of various chelator-enhanced nisin formulations were evaluated in acid vehicles in a germicidal suspension assay.
E. coli cells from an overnight Trypticase soy nutrient agar (TSA) were resuspended to a density measured as an absorbance of 1.0 at 600 nm in sterile ddH2 O. The reaction of the cells with each of the bactericidal test formulations analyzed is started by addition of 30 μl of cells to 970 μl of test formulation. The reaction mixture was incubated at 37° C. for at least 1 minute and then centrifuged in a microfuge for 1 minute. The cell pellet was washed by resuspension in 1 ml of neutralization buffer. (The neutralization buffer: 50 mM Tris-HCl, pH 7.0, 5 mM MgSO4, 20 mM CaCl2, 0.1 M NaCl and 0.1% gelatin was prepared by first making Tris buffer and adjusting the pH. The salts and gelatin were then added and the solution stirred with heat until the solution was clear. The solution was then autoclaved for 20 min. The neutralization buffer was used without dilution.) The cells were centrifuged in a microfuge for 1 minute and resuspended in 1 ml of neutralization buffer. The viable count was determined by spreading 100 μl of bacterial suspension and serial dilutions thereof in neutralization buffer on nutrient agar and scoring surviving colonies after 24 h at 37° C. Percent survival relative to untreated controls was calculated from the scored values.

E. coli strain ATCC8739 = assay: nisin-citrate agar growth inhibition assay; assay type: cell-based; conditions: Trypticase Soy Agar
Protocol: However, nisin in the presence of citrate is active against gram negative bacteria. […] This nisin-citrate agar assay has much more general applicability. The assay provides a method for screening potential agents other than citrate in combination with nisin for their potential properties as enhancers of nisin's inherent bactericidal activity.
E. coli is resuspended to an optical density of 1.0 at A600. A 100 μl sample of the bacterial suspension is spread uniformly on Trypticase Soy nutrient agar (TSA) supplemented with various concentrations of citrate (eg. 0.1%, 0.3%, 1.0%, 3.0%) and incubated for 1 hour at 37° C. A nisin stock solution and serial dilutions thereof in 0.1% bovine serum albumin (BSA), are prepared and 5 μl are taken from each and deposited onto the growing bacterial lawn. The TSA plates are then incubated for 24 hours at 37° C. After 24 hours at 37° C., E. coli grown on TSA supplemented with citrate form a confluent lawn. […] The effectiveness of nisin against the gram negative bacteria can be assessed from determining the minimum amount of nisin required to produce a clear zone of growth inhibition. As the concentration of citrate in the nutrient agar is increased, less nisin is required to inhibit the growth of E. coli, as is illustrated by the data shown in Table 6.

[1] = 0.1% w/v acetate pH 3.5, 37° C.
[2] = 0.1% w/v citrate pH 3.5, 37° C.
[3] = 0.1% w/v lactate pH 3.5, 37° C.
[4] = 0.3% w/v acetate pH 3.5, 37° C.
[5] = 0.3% w/v citrate pH 3.5, 37° C.
[6] = 0.3% w/v lactate pH 3.5, 37° C.
[7] = 1.0% w/v acetate pH 3.5, 37° C.
[8] = 1.0% w/v citrate pH 3.5, 37° C.
[9] = 3.0% w/v citrate pH 3.5, 37° C.
[10] = pH 2.0, 20 mM Na acetate buffer, 37° C., initial count 4 × 10^7 cfu/ml

Molecule | % survival at 1 min (Escherichia coli; [1]) [%] | % survival at 1 min (Escherichia coli; [2]) [%] | % survival at 1 min (Escherichia coli; [3]) [%] | % survival at 1 min (Escherichia coli; [4]) [%] | % survival at 1 min (Escherichia coli; [5]) [%] | % survival at 1 min (Escherichia coli; [6]) [%] | % survival at 1 min (Escherichia coli; [7]) [%] | % survival at 1 min (Escherichia coli; [8]) [%] | % survival at 1 min (Escherichia coli; 1.0% w/v lactate pH 3.5, 37° C.) [%] | % survival at 1 min (Escherichia coli; [9]) [%] | % survival at 1 min (Escherichia coli; [10]) [%] | Nisin NIC (nominal inhibitory concentration minimally required to prevent growth) (E. coli strain ATCC8739; 0% citrate) | Nisin NIC (nominal inhibitory concentration minimally required to prevent growth) (E. coli strain ATCC8739; 0.1% citrate) [µg/mL] | Nisin NIC (nominal inhibitory concentration minimally required to prevent growth) (E. coli strain ATCC8739; 0.3% citrate) [µg/mL] | Nisin NIC (nominal inhibitory concentration minimally required to prevent growth) (E. coli strain ATCC8739; 1.0% citrate) [µg/mL] | Nisin NIC (nominal inhibitory concentration minimally required to prevent growth) (E. coli strain ATCC8739; 3.0% citrate) [µg/mL] | % survival at 1 min (Escherichia coli; 3.0% w/v acetate pH 3.5, 37° C.) [%] | activity towards gram negative bacteria (Escherichia coli; nisin by itself or in the presence of citrate) | % survival at 1 min (Escherichia coli; pH 3.5, 20 mM Na acetate buffer, 37° C.) [%] | % survival at 1 min (Escherichia coli; pH 4.0, 20 mM Na acetate buffer, 37° C.) [%]
O=C(O)CN(CCN(CC(=O)O)CC(=O)O)CC(=O)O [EDTA] | 40 | 100 | 5.1 | 25 | 50.0 | 0.46 | 25 | 47.9 | 0.91 | 100 | 0.07 |  |  |  |  |  |  |  |  | 
nisin | 9.6 | 0.003 | 4.4 | 70 | 0.0007 | 0.24 | 100 | 0.56 |  | 14.6 | 0.28 | 3,333 μg/ml | 370 | 123 | 13.7 | 0.06 | 100 | ineffective | 100 | 100
